Experimental data from PMC7092840 (Biochemical Pharmacology, 2011).
Like-named read-outs stand apart in the source and are kept apart here. Marks after values point to notes of the source that are not given here.

Legend:
BHK cells [1] = assay: Distribution of LBPA-positive structures, confocal morphometry; type: cell-based; conditions: 16 h; for LBPA-positive structures Diameter / LBPA-positive structures N°/cell profile: BHK cells, 10 μM analogue, M ± SE; for LBPA-positive structures Diameter: control 1.46 ± 0.02; for LBPA-positive structures N°/cell profile: control 28.6 ± 1.1
[2] = Aqueous solubility of hydrochloride salt; type: physicochemical; conditions: for Aqueous solubility of hydrochloride salt At pH 5.0 / Aqueous solubility of hydrochloride salt At pH 7.4 / solubility: 22 °C; for Aqueous solubility of hydrochloride salt At pH 5.0: 5 mM K2PO4 adjusted to pH 5.0, methanol as cosolvent; for Aqueous solubility of hydrochloride salt At pH 7.4: 5 mM K2PO4 adjusted to pH 7.4, methanol as cosolvent; for pKa × solubility in water at pH 5.0: product of calculated pKa and solubility at pH 5.0; for solubility: phosphate buffer
K562 cells = assay: Exosome release; conditions: 10 μM, 16 h, N = 7, change not significant
Vero cells = type: cell-based
blood monocytes = assay: Transferrin recycling; type: cell-based; conditions: human monocytes, 10 μM
[3] = tested on: feline immunodeficiency virus (FIV) VLP budding from 293T cells; type: cell-based
[4] = tested on: early endosomes from BHK cells
BHK cells [5] = assay: Cell cholesterol content; conditions: 10 μM, 16 h, p = 0.03, N = 5
[6] = tested on: HIV-1 VLP budding from 293T cells; type: cell-based, human immunodeficiency virus type 1
BHK cells [7] = assay: Cell viability / tolerated concentration; type: cell-based
[8] = ref [27]; cited from earlier work
[9] = ref http://www.patentstorm.us/patents/6939865/description.html; cited from earlier work
[10] = 10 μM, 5 independent experiments, p < 0.01

Row | SMILES | LBPA-positive structures Diameter (BHK cells [1]) | LBPA-positive structures N°/cell profile (BHK cells [1]) | Aqueous solubility of hydrochloride salt At pH 5.0 [2] | Aqueous solubility of hydrochloride salt At pH 7.4 [2] | pKa × solubility in water at pH 5.0 [2] | further results
1 | CCCCc1oc2ccccc2c1C(=O)c1cc(I)c(OCCN2CCCCC2)c(I)c1.Cl [PIPAM, 4-(2-butyl-benzofuran-3-yl)-[3,5-diiodophenyl-4-(2-piperidinoethoxy)phenyl] methanone·hydrochloride] | 1.73 ± 0.03 μm | 14.7 ± 2.1 | 2.22 ^b μM | 0.023 ^b μM | 11.88 | –
2 | CCCCc1oc2ccccc2c1C(=O)c1cc(I)c(OCCNCC)c(I)c1 [MDEA, 2-n-butyl-3-(3,5-diiodo-4-ethylaminoethoxybenzoyl)-benzofuran, reference compound] | – | – | – | – | – | solubility ([2]; pH 5): 12 µM; solubility ([2]; pH 7.4): 0.11 µM
3 | CCCCc1oc2ccccc2c1C(=O)c1cc(I)c(OCCN2CCOCC2)c(I)c1 [MOPAM, 2-n-butyl-3-(3,5-diiodo-4-β-Nmorpholinoethoxybenzoyl)benzofuran] | 1.45 ± 0.02 μm | 29.3 ± 0.6 | 0.17 ^b μM | 0.015 ^b μM | 0.55 | –
4 | CCCCc1oc2ccccc2c1C(=O)c1cc(I)c(OCCN(CC)CC)c(I)c1 [AMI, Amiodarone] | 2.01 ± 0.03 μm | 5.2 ± 0.4 | – | – | – | decrease in secreted acetylcholinesterase with respect to control cells (K562 cells): 12.0 ± 8.7%; effect on activity of Shiga toxin (Vero cells): not decreased; effect on transferrin recycling (blood monocytes): no effect; release of mature VLPs (FIV) [3]: did not inhibit the release of mature VLPs; change in endosome-associated fluorescence [4]: no change; decrease in number of LBPA-rich structures per cell profile (BHK cells [1]; [10]): 69.0 ± 4.5%; increase in diameter of LBPA-rich structures (BHK cells [1]; [10]): 42.6 ± 5.2%; increase in cell cholesterol (BHK cells [5]): 17.3 ± 5.2%; release of mature VLPs (HIV-1) [6]: did not inhibit the release of mature VLPs
5 | CCCCc1oc2ccccc2c1C(=O)c1cc(I)c(OCCN2CCCC2)c(I)c1.Cl [PYRAM, 4-(2-butyl-benzofuran-3-yl)-[3,5-diiodophenyl-4-(2-pyrrolidin-1-yl-ethoxy)phenyl]-methanone·hydrochloride] | 2.08 ± 0.05 μm | 7.6 ± 0.6 | 1.86 ^b μM | 0.049 ^b μM | 9.22 | –
6 | CCCCc1oc2ccccc2c1C(=O)c1cc(I)c(OCCN(C)C)c(I)c1 [MeAMI, (2-butyl-benzofuran-3-yl)-4-[2-(dimethylamino-ethoxy)-3,5-diiodophenyl]methanone] | 2.45 ± 0.08 μm | 4.5 ± 0.6 | 2.21 ^b μM | 0.051 ^b μM | 17.50 | –
7 | CCCCc1oc2ccc(NS(C)(=O)=O)cc2c1C(=O)c1ccc(OCCCN(CCCC)CCCC)cc1 [DRO, Dronedarone] | – | – | – | – | – | highest concentration tolerated by transfected cells (BHK cells [7]; BHK cells transiently transfected with pEGFP-LC3, 16 h): 2 µM; concentration toxic to cells (BHK cells [7]; BHK cells, 16 h): > 5 µM; serum levels, times lower than in patients treated with amiodarone [8]: over 10 times; Aqueous solubility of hydrochloride salt At pH 7.4 [9]: <0.001 ^c μM
8 | CCCCc1oc2ccccc2c1C(=O)c1cc(I)c(OCCN(C(C)C)C(C)C)c(I)c1.Cl [DIPAM, (2-butyl-benzofuran-3-yl)-4-[2-(diisopropylamino)ethoxy]-3,5-diiodophenyl-methanone·hydrochloride] | 1.64 ± 0.04 μm | 24.6 ± 3.0 | 0.23 ^b μM | 0.014 ^b μM | 2.07 | –
